Laboratory results published in US5763396A, “Method of treating or preventing type 1 diabetes by oral administration of insulin” (AutoImmune Inc., priority 1995, dated 1998).
Several values for one entry are separate records, joined by “and”; a condition that tells them apart may be missing. Identical values can stand only once. Entries after “also recorded” stand apart in the source; their conditions may differ.

Assays:
Format in all cases: in vivo
NOD mice [1] = assay: Glucose post oral insulin in fasting 7 week NOD mice (Example 2); details: for blood glucose over the next 24 hours / blood glucose change after feeding (protein load) / drop in blood glucose after feeding: 1 mg oral; for blood glucose over the next 24 hours: animals in fasting state
Experimental: In order to determine whether any endocrinologic (i.e. direct lowering of blood sugar) effects occurred following the feeding of insulin, 7 week old NOD mice (5 mice per group) were fed 1 mg of porcine insulin or 1 mg of myelin basic protein (obtained from Pel Freez, Rogers, Ark.) as a control protein. Blood glucose was then measured over the next 24 hour period. As a positive control, a separate group of animals were injected subcutaneously with 20 micrograms of Porcine insulin. All animals were kept in the fasting state.

NOD mice [2] = assay: Effect of feeding porcine insulin on spontaneous diabetes in NOD mice (Example 1)
Source text: NOD (non-obese diabetic mice) were obtained from Taconic Laboratories (Germantown, Mass.) at 4 weeks of age. There were a total of 30 animals in each of the groups mentioned below at the beginning of the experiment. At […] of age, animals were orally administered Porcine insulin (Novo Laboratories, Danbury, Conn.). Each animal received two treatments orally twice a week until 9 weeks of age. The mice were fed either saline (control) or 10 micrograms, 100 micrograms, or 1 milligram of Porcine insulin. The animals were fed (gavaged) with an 18 gauge ball-point needle (Popper and Sons, Inc., New Hyde Park, N.Y.). Beginning at 10 weeks the animals were then fed once a week for a total of 33 weeks. Beginning at 12 weeks the urine was tested weekly for the presence of glucose using Glucosuria test tape (Eli Lilly, Indianapolis, Ind.). If an animal tested 3+ or higher on the glucose urine test, a serum sample was taken and blood glucose measured using a glucose analyzer (Beckman). If the blood glucose was 220 or higher, the animals were classified as diabetic and then sacrificed.

NOD mice [3] = assay: Insulitis in insulin-fed NOD mice (preliminary experiments); details: fed 1 mg insulin vs PBS-fed NOD mice, data not shown
Source text: Therefore, oral administration of insulin to NOD mice appeared to be affecting the infiltration of immune system cells into the pancreas and thus halting disease progression by preserving beta cell function.

NOD mice [4] = assay: Treatment of initial stages of diabetes in NOD mice (Example 5); details: oral and aerosol, 0 to 1 mg, hyperglycemic NOD mice
Experimental: Insulin (0 to 1 mg as in Examples 1 and 2) will be administered to NOD mice which are suffering from hyperglycemia in an oral and aerosol form. The treatments will begin by weeks 12-20 of age, by which the serum glucose levels are at hyperglycemic concentrations in a certain percentage of animals prior to onset of diabetes.

NOD mice [5] = assay: Effect of aerosol administration of insulin on diabetes in NOD mice (Example 4); details: aerosol by nebulizer, 0 to 1 mg
Experimental: Insulin (0 to 1 mg as in Examples 1 and 2) will be administered to NOD mice as described above in Examples 1 and 2 except in aerosol form by nebulizer.

[6] = 20 micrograms porcine insulin subcutaneously, fasting 7 week NOD mice

Substance | blood glucose over the next 24 hours (NOD mice [1]) | blood glucose change after feeding (protein load) (NOD mice [1]; fasting 7 week NOD mice) | drop in blood glucose after feeding (NOD mice [1]; fasting 7 week NOD mice) | development of diabetes (NOD mice [2]; NOD mice fed 1 mg porcine insulin orally, diabetic = blood glucose 220 or higher) | development of diabetes (NOD mice [2]; NOD mice fed 10 micrograms porcine insulin orally) | development of diabetes (NOD mice [2]; NOD mice fed 100 micrograms porcine insulin orally) | incidence of diabetes (NOD mice [2]; all doses of orally administered insulin tested (10 micrograms to 1 mg)) | blood sugar on 10 representative animals (NOD mice [2]; fed 1 mg insulin, none diabetic, individual animals) | blood sugar in animals which developed diabetes (NOD mice [2]; fed 10 micrograms of insulin, individual animals) | blood sugar in animals that became diabetic (NOD mice [2]; fed 100 micrograms of insulin, individual animals) | inflammatory immune system cells surrounding the pancreas (insulitis) (NOD mice [3]) | beta cell function (NOD mice [4]) | serum glucose concentrations (NOD mice [4]) | prevention of manifestation of symptoms (hyperglycemia) of Type 1 diabetes (NOD mice [5]) | endocrinologic (metabolic) effects (NOD mice [1]; 1 mg oral insulin, NOD mice) | decrease in the glucose level (NOD mice [1]; [6]) | period over which glucose decrease persisted (NOD mice [1]; [6]) [h]
myelin basic protein | gradual decrease in blood glucose | increase in blood glucose | no drop in the blood glucose |  |  |  |  |  |  |  |  |  |  |  |  |  | 
Porcine insulin | gradual decrease in blood glucose | increase in blood glucose | no drop in the blood glucose | none of the mice went on to develop diabetes; also recorded: no diabetes developed; also recorded: None of the animals developed diabetes | diabetes developed | diabetes developed | lower incidence of diabetes; also recorded: reduced the numbers of these mice which subsequently went on to develop diabetes | 174 mg/dl and 128 mg/dl and 125 mg/dl (2×) and 145 mg/dl and 123 mg/dl and 136 mg/dl and 155 mg/dl and 115 mg/dl and 130 mg/dl | 330 mg/dL and 420 mg/dL and 315 mg/dL and 459 mg/dL and 520 mg/dL and 487 mg/dL | 500 mg/dL and 290 mg/dL and 600 mg/dL and 450 mg/dL | fewer inflammatory immune system cells surrounding the pancreas | preservation of beta cell function | reduction in serum glucose concentrations to near normal levels | effective in preventing the manifestation of symptoms | not a metabolic effect; also recorded: no endocrinologic (metabolic) effects | approximately 80 mg % | 4
